The subject of one series is macular degeneration. Particulars: general anti-oxidants; cited from earlier work.
In series [1] the test system is animals such as birds or fish. As to the kind of experiment: Feeding of F. multivorum cell paste to animals such as birds or fish. The class given is in vivo. Particulars: oral, cell paste of F. multivorum cells. An excerpt:
Although this option has not yet been fully evaluated, it is possible that the Flavobacterium multivorum cells themselves, in intact form and possibly even in a viable state, may be suitable for direct ingestion by humans. A substantial number of human foods (including cheese, yogurt, beer, etc.) contain viable or killed-but-intact microbial cells, and there is no known pathogenicity associated with the F. multivorum cells isolated by Applied Food Biotechnology, Inc. They were isolated from a relatively cold artesian waterway, and since they are adapted to living in cold water, they cannot survive or reproduce well at temperatures inside the human body. […] When fed directly in the form of a cell paste to animals such as birds or fish, these cells appear to be well-suited as delivery vehicles for zeaxanthin.

For a further series, the system named is chickens. Particulars: cited from earlier work.
A further series can be described thus: physchem. Particulars: dry powder.
The conditions of series [2]: di Mascio et al 1989; among known carotenoids; cited from earlier work.
The next series has as its system retina. Particulars: in vivo; cited from earlier work.

We go through 6 molecules from US5747544A, “Method of using pure 3R-3'R stereoisomer of zeaxanthin to treat or prevent retinal degeneration in humans” (priority 1995, dated 1998).

Source text for physchem: After roughly six months of storage in a relatively unprotected state (usually under normal refrigeration with moderately frequent removal; without containing any antioxidants, and without taking any precautions to prevent contact by atmospheric oxygen), a sample of the zeaxanthin preparation was sent for stereoisomeric analysis to Prof.

As to `CC1=C(/C=C/C(C)=C/C=C/C(C)=C/CO)C(C)(C)CCC1` [Retinol (Vit. A), Retinol], the “benefit in the retina against macular degeneration” value (from here on “benefit in the retina”) with macular degeneration was “very limited”.
As for `CC1=C(/C=C/C(C)=C/C=C/C(C)=C/C=C/C=C(C)/C=C/C=C(C)/C=C/C2=C(C)CCCC2(C)C)C(C)(C)CCC1` [β-Carotene, β-carotene], the “benefit in the retina” value in the series with macular degeneration was “very limited”.
One may read the fraction remaining as what is left of the initial amount, in per cent. Low readings indicate more turnover, high ones less turnover. Take `CC1=C(/C=C/C(C)=C/C=C/C(C)=C/C=C/C=C(C)/C=C/C=C(C)/C=C/C2=C(C)C[C@@H](O)CC2(C)C)C(C)(C)C[C@H](O)C1` [Zeaxanthin, 3,3'-dihydroxy-β-β-carotene]: the “absorption and tissue deposition of zeaxanthin” value in series [1] is “absorbed into the bloodstream and deposited into various tissues at expected and appropriate tissue locations”. For the same molecule, the coloration of chickens entry with chickens (Flavobacter cells (ATCC 21081, 21588) with their zeaxanthin fed, U.S. Pat. No. 3,891,504) is recorded as “caused suitable coloration”. Also, the “coloring potency relative to lutein” value in the series on chickens (per-weight basis, chicken skin and egg yolks) is 2-3 times. Besides, in the series on chickens (per-weight basis), the “effectiveness in imparting color to animal flesh or chicken yolks relative to lutein” value is “several times more effective”. The same molecule displayed a share remaining at 4380 h in the series “physchem” of 92%.
With `CC(C)=CCC/C(C)=C/C=C/C(C)=C/C=C/C(C)=C/C=C/C=C(C)/C=C/C=C(C)/C=C/C=C(\C)CCC=C(C)C` [lycopene], the singlet oxygen quenching entry in series [2] was “best singlet oxygen quencher of all known carotenoids”.
With `Cc1c(C)c2c(c(C)c1O)CCC(C)(CCCC(C)CCCC(C)CCCC(C)C)O2` (stereo not drawn) [alpha-Tocopherol], the “benefit in the retina” value in the series with macular degeneration is recorded as “very limited”.
On to `CC1=C(/C=C/C(C)=C/C=C/C(C)=C/C=C/C=C(C)/C=C/C=C(C)/C=C/C2=C(C)C(=O)CCC2(C)C)C(C)(C)CCC1=O` [Canthaxanthin], for which the retinal toxicity entry in the series with retina was “has been shown to cause retinal maculopathy”.
